# Laboratory results: patent publication US20230265151A1, “GIP/GLP1 CO-AGONIST COMPOUNDS” (priority 2020, published 2023)
# Where two headings read alike, the source gives them in different places.
# What was measured:
# hGLP-1R = hGLP-1R (Homo sapiens, UniProt P43220); test: Functional cAMP formation (HTRF) in HEK-293 clonal cells expressing hGLP-1R, 0.1% bovine casein, without or with 1.0% human serum albumin; assay type: cell-based; parameters: expressed in transfected cells; settings: for EC50: cAMP, incubated at 37° C., 0.1% bovine casein (no human serum albumin), geometric mean; for Emax: 37° C., 0.1% bovine casein, arithmetic mean
# Sequence of hGLP-1R (P43220 24-463): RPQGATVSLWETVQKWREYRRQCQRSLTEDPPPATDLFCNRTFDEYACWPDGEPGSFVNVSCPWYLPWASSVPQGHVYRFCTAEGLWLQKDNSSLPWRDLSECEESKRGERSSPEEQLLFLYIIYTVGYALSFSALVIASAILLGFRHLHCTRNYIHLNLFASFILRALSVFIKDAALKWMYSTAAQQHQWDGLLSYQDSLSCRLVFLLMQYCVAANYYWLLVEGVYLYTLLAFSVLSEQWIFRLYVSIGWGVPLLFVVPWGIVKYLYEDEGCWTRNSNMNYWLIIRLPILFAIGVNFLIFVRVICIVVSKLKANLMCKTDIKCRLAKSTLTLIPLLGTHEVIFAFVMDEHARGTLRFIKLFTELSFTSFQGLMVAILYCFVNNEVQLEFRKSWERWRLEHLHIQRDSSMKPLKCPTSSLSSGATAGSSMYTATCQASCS
# Procedure: After a 30-min incubation at 37° C., the resulting increase in intracellular cAMP is quantitatively determined using a CisBio cAMP Dynamic 2 HTRF Assay Kit (62AM4PEJ). Briefly, cAMP levels within the cell are detected by adding the cAMP-d2 conjugate in cell lysis buffer (10 µL) followed by the antibody anti-cAMP-Eu^3+-Cryptate, also in cell lysis buffer (10 µL). The resulting competitive assay is incubated for at least 60 min at room temperature, and then is detected using a PerkinElmer Envision® instrument with excitation at 320 nm and emission at 665 nm and 620 nm. Envision units (emission at 665 nm/620 nm* 10,000) are inversely proportional to the amount of cAMP present and are converted to nM cAMP per well us-ing a cAMP standard curve. […] A relative EC50 value and percent top (Emax) are derived by non-linear regression analysis using the percent maximal response vs. the concentration of peptide added, fitted to a four-parameter logistic equation.
# hGCGR = target: T1, hGCGR (Homo sapiens, UniProt P47871); test: Functional cAMP formation (HTRF) in HEK-293 clonal cells expressing hGCGR, 0.1% bovine casein, without or with 1.0% human serum albumin; assay type: cell-based; settings: cAMP, incubated at 37° C., 0.1% bovine casein (no human serum albumin), geometric mean
# T1 construct: expressed in transfected cells
# T1 sequence (P47871 26-477): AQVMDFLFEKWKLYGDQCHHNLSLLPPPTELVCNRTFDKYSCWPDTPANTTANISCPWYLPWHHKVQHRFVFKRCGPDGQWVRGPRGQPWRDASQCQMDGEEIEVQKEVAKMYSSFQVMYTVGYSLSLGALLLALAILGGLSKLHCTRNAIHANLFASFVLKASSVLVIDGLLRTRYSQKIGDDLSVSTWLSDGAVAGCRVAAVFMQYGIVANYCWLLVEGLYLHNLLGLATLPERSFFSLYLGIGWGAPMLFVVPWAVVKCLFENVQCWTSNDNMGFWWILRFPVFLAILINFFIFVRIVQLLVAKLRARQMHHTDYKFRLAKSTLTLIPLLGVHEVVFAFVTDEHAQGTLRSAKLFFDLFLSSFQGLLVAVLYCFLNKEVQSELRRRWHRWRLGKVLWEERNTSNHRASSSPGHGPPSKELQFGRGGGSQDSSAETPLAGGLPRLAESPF
# Procedure, shortened: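 Cells were stimulated with peptide for 30 min at 37° C, then intracellular cAMP was measured by competitive HTRF (665/620 nm ratio) and converted to nM using a cAMP standard curve. Relative EC50 and Emax came from four-parameter logistic fits of percent maximal response against peptide concentration.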
# [1] = HEK293, read-out: hGLP-1R Emax, % ± SEM, percent of maximal response to GLP-1(7-36)NH2
Compound,"EC50 (hGLP-1R; hGLP-1R EC50, nM (SEM, n))","EC50 (hGCGR; hGCGR EC50, nM (SEM, n))",Emax (hGLP-1R; [1]),"Emax (hGLP-1R; HEK293, percent of maximal response to GLP-1(7-36)NH2, read-out: hGLP-1R Emax, % ± SEM)","EC50 (hGLP-1R; read-out: hGLP-1R EC50, nM (SEM, n))","EC50 (hGCGR; read-out: hGCGR EC50, nM (SEM, n))"
CC[C@H](C)[C@H](NC(=O)[C@H](CC(C)C)NC(=O)[C@](C)(Cc1ccc(O)cc1)NC(=O)[C@H](CCCCNC(=O)COCCOCCNC(=O)COCCOCCNC(=O)CC[C@H](NC(=O)CCCCCCCCCCCCC(=O)O)C(=O)O)NC(=O)[C@@H](NC(=O)[C@](C)(Cc1ccccc1)NC(=O)[C@H](CCC(=O)O)NC(=O)C(C)(C)NC(=O)[C@H](CCC(N)=O)NC(=O)[C@H](C)NC(=O)[C@H](CCCCNC(=O)COCCOCCNC(=O)COCCOCCNC(=O)CC[C@H](NC(=O)CCCCCCCCCCCCC(=O)O)C(=O)O)NC(=O)[C@H](CCCN)NC(=O)[C@H](CC(=O)O)NC(=O)[C@H](CC(C)C)NC(=O)[C@](C)(CC(C)C)NC(=O)[C@@H](NC(=O)[C@H](CO)NC(=O)C1(NC(=O)[C@H](CC(=O)O)NC(=O)[C@H](CO)NC(=O)[C@@H](NC(=O)[C@](C)(Cc2ccccc2F)NC(=O)[C@@H](NC(=O)CNC(=O)[C@H](CCC(=O)O)NC(=O)C(C)(C)NC(=O)[C@@H](N)Cc2ccc(O)cc2)[C@@H](C)O)[C@@H](C)O)CCCC1)[C@@H](C)CC)[C@@H](C)CC)C(=O)N[C@@H](CCC(=O)O)C(=O)NCC(=O)NCC(=O)N1CCC[C@H]1C(=O)N[C@@H](CO)C(=O)N[C@@H](CO)C(=O)NCC(=O)N[C@@H](C)C(=O)N1CCC[C@H]1C(=O)N1CCC[C@H]1C(=O)N1CCC[C@H]1C(=O)N[C@@H](CO)C(N)=O [Example 120],1.43 nM,> 9950 nM,–,–,–,–
CC[C@H](C)[C@H](NC(=O)[C@H](CC(C)C)NC(=O)[C@](C)(Cc1ccccc1)NC(=O)[C@H](CCCCNC(=O)COCCOCCNC(=O)COCCOCCNC(=O)CC[C@H](NC(=O)CCCCCCCCCCCCC(=O)O)C(=O)O)NC(=O)[C@@H](NC(=O)[C@](C)(Cc1ccccc1)NC(=O)[C@H](CCC(=O)O)NC(=O)C(C)(C)NC(=O)[C@H](CCC(N)=O)NC(=O)[C@H](C)NC(=O)[C@H](CCCCNC(=O)COCCOCCNC(=O)COCCOCCNC(=O)CC[C@H](NC(=O)CCCCCCCCCCCCC(=O)O)C(=O)O)NC(=O)[C@H](CCCN)NC(=O)[C@H](CC(=O)O)NC(=O)[C@H](CC(C)C)NC(=O)[C@](C)(CC(C)C)NC(=O)[C@@H](NC(=O)[C@H](CO)NC(=O)C1(NC(=O)[C@H](CC(=O)O)NC(=O)[C@H](CO)NC(=O)[C@@H](NC(=O)[C@](C)(Cc2ccccc2F)NC(=O)[C@@H](NC(=O)CNC(=O)[C@H](CCC(=O)O)NC(=O)C(C)(C)NC(=O)[C@@H](N)Cc2ccc(O)cc2)[C@@H](C)O)[C@@H](C)O)CCCC1)[C@@H](C)CC)[C@@H](C)CC)C(=O)N[C@@H](CCC(=O)O)C(=O)NCC(=O)NCC(=O)N1CCC[C@H]1C(=O)N[C@@H](CO)C(=O)N[C@@H](CO)C(=O)NCC(=O)N[C@@H](C)C(=O)N1CCC[C@H]1C(=O)N1CCC[C@H]1C(=O)N1CCC[C@H]1C(=O)N[C@@H](CO)C(N)=O [Example 124],–,> 9950 nM,93.3%,–,–,–
CC[C@H](C)[C@H](NC(=O)[C@H](CC(C)C)NC(=O)[C@](C)(Cc1ccc(O)cc1)NC(=O)[C@@H](CCC(=O)O)NC(=O)[C@@H](NC(=O)[C@H](Cc1ccccc1)NC(=O)[C@H](CCCCNC(=O)COCCOCCNC(=O)COCCOCCNC(=O)CC[C@H](NC(=O)CCCCCCCCCOc1ccc(C(=O)O)cc1)C(=O)O)NC(=O)C(C)(C)NC(=O)[C@H](CCC(N)=O)NC(=O)[C@H](C)NC(=O)[C@H](CCCCNC(=O)COCCOCCNC(=O)COCCOCCNC(=O)CC[C@H](NC(=O)CCCCCCCCCOc1ccc(C(=O)O)cc1)C(=O)O)NC(=O)[C@H](CCCN)NC(=O)[C@H](CC(=O)O)NC(=O)[C@H](CC(C)C)NC(=O)[C@](C)(CC(C)C)NC(=O)[C@@H](NC(=O)[C@H](CO)NC(=O)[C@H](Cc1ccncc1)NC(=O)[C@H](CC(=O)O)NC(=O)[C@H](CO)NC(=O)[C@@H](NC(=O)[C@](C)(Cc1ccccc1F)NC(=O)[C@@H](NC(=O)CNC(=O)[C@H](CCC(=O)O)NC(=O)C(C)(C)NC(=O)[C@@H](N)Cc1ccc(O)cc1)[C@@H](C)O)[C@@H](C)O)[C@@H](C)CC)[C@@H](C)CC)C(=O)N[C@@H](CCC(=O)O)C(=O)NCC(=O)NCC(=O)N1CCC[C@H]1C(=O)N[C@@H](CO)C(=O)N[C@@H](CO)C(=O)NCC(=O)N[C@@H](C)C(=O)N1CCC[C@H]1C(=O)N1CCC[C@H]1C(=O)N1CCC[C@H]1C(=O)N[C@@H](CO)C(N)=O [Example 127],–,> 9950 nM,98.5%,–,–,–
CC[C@H](C)[C@H](NC(=O)[C@H](CC(C)C)NC(=O)[C@](C)(Cc1ccc(O)cc1)NC(=O)[C@@H](CCC(=O)O)NC(=O)[C@@H](NC(=O)[C@H](Cc1ccccc1)NC(=O)[C@H](CCC(=O)O)NC(=O)C(C)(C)NC(=O)[C@H](CCC(N)=O)NC(=O)[C@H](C)NC(=O)[C@H](CCCCNC(=O)COCCOCCNC(=O)COCCOCCNC(=O)CC[C@H](NC(=O)CCCCCCCCCOc1ccc(C(=O)O)cc1)C(=O)O)NC(=O)[C@H](CCCN)NC(=O)[C@H](CC(=O)O)NC(=O)[C@H](CC(C)C)NC(=O)[C@](C)(CC(C)C)NC(=O)[C@@H](NC(=O)[C@H](CO)NC(=O)[C@H](Cc1ccncc1)NC(=O)[C@H](CC(=O)O)NC(=O)[C@H](CO)NC(=O)[C@@H](NC(=O)[C@](C)(Cc1ccccc1F)NC(=O)[C@@H](NC(=O)CNC(=O)[C@H](CCC(=O)O)NC(=O)C(C)(C)NC(=O)[C@@H](N)Cc1ccc(O)cc1)[C@@H](C)O)[C@@H](C)O)[C@@H](C)CC)[C@@H](C)CC)C(=O)N[C@@H](CCCCNC(=O)COCCOCCNC(=O)COCCOCCNC(=O)CC[C@H](NC(=O)CCCCCCCCCOc1ccc(C(=O)O)cc1)C(=O)O)C(=O)NCC(=O)NCC(=O)N1CCC[C@H]1C(=O)N[C@@H](CO)C(=O)N[C@@H](CO)C(=O)NCC(=O)N[C@@H](C)C(=O)N1CCC[C@H]1C(=O)N1CCC[C@H]1C(=O)N1CCC[C@H]1C(=O)N[C@@H](CO)C(N)=O [Example 129],1.28 nM,> 9950 nM,97.9%,–,–,–
CC[C@H](C)[C@H](NC(=O)[C@H](CC(C)C)NC(=O)[C@](C)(Cc1ccc(O)cc1)NC(=O)[C@@H](CCC(=O)O)NC(=O)[C@@H](NC(=O)[C@H](Cc1ccccc1)NC(=O)[C@H](CCC(=O)O)NC(=O)[C@H](CCCN)NC(=O)[C@H](CCC(N)=O)NC(=O)[C@H](C)NC(=O)[C@H](CCCCNC(=O)COCCOCCNC(=O)COCCOCCNC(=O)CC[C@H](NC(=O)CCCCCCCCCCCCC(=O)O)C(=O)O)NC(=O)[C@H](CCCN)NC(=O)[C@H](CC(=O)O)NC(=O)[C@H](CC(C)C)NC(=O)[C@](C)(CC(C)C)NC(=O)[C@@H](NC(=O)[C@H](CO)NC(=O)[C@H](Cc1ccncc1)NC(=O)[C@H](CC(=O)O)NC(=O)[C@H](CO)NC(=O)[C@@H](NC(=O)[C@](C)(Cc1ccccc1F)NC(=O)[C@@H](NC(=O)CNC(=O)[C@H](CCC(=O)O)NC(=O)C(C)(C)NC(=O)[C@@H](N)Cc1ccc(O)cc1)[C@@H](C)O)[C@@H](C)O)[C@@H](C)CC)[C@@H](C)CC)C(=O)N[C@@H](CCC(=O)O)C(=O)NCC(=O)NCC(=O)N[C@@H](CCCCNC(=O)COCCOCCNC(=O)COCCOCCNC(=O)CC[C@H](NC(=O)CCCCCCCCCCCCC(=O)O)C(=O)O)C(=O)N[C@@H](CO)C(=O)N[C@@H](CO)C(=O)NCC(=O)N[C@@H](C)C(=O)N1CCC[C@H]1C(=O)N1CCC[C@H]1C(=O)N1CCC[C@H]1C(=O)N[C@@H](CO)C(N)=O [Example 149],–,–,–,98.3 ± 0.579%,1.5 nM,> 9950 nM
CC[C@H](C)[C@H](NC(=O)[C@H](CC(C)C)NC(=O)[C@](C)(Cc1ccc(O)cc1)NC(=O)[C@H](CCCCNC(=O)[C@@H](N)CCCCNC(=O)CC[C@H](NC(=O)CCCCCCCCCCCCC(=O)O)C(=O)O)NC(=O)[C@@H](NC(=O)[C@H](Cc1ccccc1)NC(=O)[C@H](CCC(=O)O)NC(=O)C(C)(C)NC(=O)[C@H](CCC(N)=O)NC(=O)[C@H](C)NC(=O)[C@H](CCCCNC(=O)[C@@H](N)CCCCNC(=O)CC[C@H](NC(=O)CCCCCCCCCCCCC(=O)O)C(=O)O)NC(=O)[C@H](CCCN)NC(=O)[C@H](CC(=O)O)NC(=O)[C@H](CC(C)C)NC(=O)[C@](C)(CC(C)C)NC(=O)[C@@H](NC(=O)C(C)(C)NC(=O)[C@@H](NC(=O)[C@H](CC(=O)O)NC(=O)[C@H](CO)NC(=O)[C@@H](NC(=O)[C@](C)(Cc1ccccc1F)NC(=O)[C@@H](NC(=O)CNC(=O)[C@H](CCC(=O)O)NC(=O)C(C)(C)NC(=O)[C@@H](N)Cc1ccc(O)cc1)[C@@H](C)O)[C@@H](C)O)C(C)C)[C@@H](C)CC)[C@@H](C)CC)C(=O)N[C@@H](CCC(=O)O)C(=O)NCC(=O)NCC(=O)N1CCC[C@H]1C(=O)N[C@@H](CO)C(=O)N[C@@H](CO)C(=O)NCC(=O)N[C@@H](C)C(=O)N1CCC[C@H]1C(=O)N1CCC[C@H]1C(=O)N1CCC[C@H]1C(=O)N[C@@H](CO)C(N)=O [Example 167],0.217 nM,> 9950 nM,91.4 ± 3.21%,–,–,–
